Laboratory results as given in US20120238554A1, “SALTS OF POTASSIUM ATP CHANNEL OPENERS AND USES THEREOF” (priority 2007, published 2012).
“Also recorded” adds a separate entry of the source. Where a name gives a salt, the structure may show the parent alone. Read-outs that look alike come from different tables or passages of the source. Marks after values point to notes of the source that are not given here.

How the values were obtained:
[1] = Bioavailability of diazoxide choline and related molecules; details: male mice; for AUC0-6 / Cmax: Oral gavage, single 50 mg/kg dose; for Relative oral bioavail.: ratio of AUC0-6 to that of the IV dose of diazoxide choline
Description: The study used 4 mice dosed per treatment arm. Following, a single intravenous or oral dose, administered by gavage, pharmacokinetic samples were collected at 4 time points: 0.5, 1, 3, and 6 hours post-dosing. Two mice were sampled at each timepoint, with each mouse contributing samples to two timepoints. Each test drug was administered as a 50 mg/kg dose, which yields nearly equal molar concentrations. […] Blood samples were collected into tubes containing dipotassium EDTA as the anticoagulant and placed on ice packs until centrifugation (at 3000 rpm for 10 minutes at 4° C.). After centrifugation, samples were stored at −70° C. until they were thawed for analysis. Circulating drug levels were measured using a precise and reproducible LC-MS/MS assay.

[2] = Moisture sorption analysis; assay type: physicochemical
Description: Moisture Sorption Analysis was performed with a Hiden IGAsorp Moisture Sorption Instrument, Samples were first dried at 0% relative humidity at 25° C. until an equilibrium weight was reached, or for a maximum of 4 hours. Samples were then subjected to an isothermal (25° C.) scan from 10-90% relative humidity in steps of 10%. The samples were allowed to equilibrate to an asymptotic weight at each point for a maximum of 4 hours. Following absorption, a desorption scan from […] relative humidity (at 25° C.) was run in steps of −10%, again allowing a maximum of 4 hours for the samples to equilibrate. The resulting samples after desorption were dried at 80° C. for two hours and analyzed by XRPD.

[3] = Form conversion and degradation under thermal stress (60° C.); details: for Thermal: 7 days
Description: Studies were also conducted to evaluate the likelihood for conversion and degradation under thermal stress.

[4] = Slurry studies of inter-conversion of the solid form; details: room temperature
[5] = system: Zucker rats; details: oral 1-10 mg/kg/day, 14 days; cited from earlier work
[6] = system: high-fructose diet rats; details: rat, in vivo; cited from earlier work
[7] = Polymorph screening crystallizations and characterization of forms (XRPD, DSC, TGA); assay type: physicochemical; details: for TGA: data indicates a half-molar equivalent of acetone, water, or dioxane for Forms C, D, F
Description: DSC analysis were conducted with a Mettler 822 DSC, by measuring the amount of energy released by a sample, as the sample was heated from 30° C. to between 300-500° C. at a rate of 10° C./min. Typical applications of DSC analysis include determination of melting point temperature and the heat of melting; measurement of the glass transition temperature; curing and crystallization studies; and identification of phase transformations.
TGA measurements were conducted with a Mettler 851 SDTA/TGA, by measuring weight loss as a function of increasing temperature, as the samples were heated from 30° C. to 230° C. at a rate of 10° C./min. The TCA can be used to analyze desorption and decomposition behavior, characterize oxidation behavior, set burnout or conditioning parameters (temperature/ramp rate/time), and determine chemical composition.
XRPD samples were analyzed with a Shimadzu XRD-6000 system, using a Cu Kα, 40 kV, 40 mA X-ray tube. The divergence and scatter slits were 1.00 deg, and the receiving slit was 0.30 mm. Samples were continuously scanned at a range of 3.0-45.0 deg, with a step size of 0.04 deg., at a scan rate of 2 deg/min.
After hot filtration the vials were placed in a refrigerator (4° C.) for 16 hours. […] All solids were dried in vacuo at ambient temperature and 30 in. Hg.
After hot filtration the vials were then slowly cooled to room temperature at the rate of 20° C./h and stirred at room temperature for 1-2 hours. All solids were dried in vacuo at ambient temperature and 30 in. Hg.
Solvents for crystallizations were chosen based on the solubility screen summarized below.

[8] = Solubility screen in organic solvents
[9] = system: obese Zucker rats; details: 5 mg/kg/day, cited from earlier work
[10] = 60° C., closed, protected from light, 7 and 14 days
[11] = 50/50 mixtures of potassium salt Forms C, D, F, ethyl acetate, acetonitrile, isopropanol

O=S1(=O)N=C(NC2CCC2)Nc2ccc(F)cc21
AUC0-6 [1]: 89 ± 16 ng·h/mL
Cmax [1]: 0.024 ± 0.01 µg/mL
Relative oral bioavail. [1]: 0.06%

CC1=Nc2ccc(Cl)cc2S(=O)(=O)[N-]1.C[N+](C)(C)CCO [diazoxide choline salt Form A]
Moisture Sorption (hygroscopicity) ([2]; 25° C., listed as Form A): Hygroscopic - deliquesced
water absorbed ([2]; 60% RH, 25° C., listed as Form A): 2.4 wt %
crystalline form after moisture sorption/desorption (XRPD) ([2]; listed as Form A): consistent with Form A
form conversion and degradation under thermal stress (XRPD, DSC) [3]: Started to convert to Form
inter-conversion of the solid form in slurry ([4]; 7 and 14 days, n-heptane, dichloromethane, toluene (Table 16 Form B: CH2Cl2, THF, t-AmOH), listed as Form A): conversion to Form B was observed after seven days; also recorded: readily converted to Form B; also recorded: Converted to Form B after 7

N#CNC(=NCCc1ccccc1Cl)c1cncc(N)c1 [KRN4884]
serum insulin and glucose levels [5]: no change
serum triglyceride levels [5]: dose dependently reduce
Hepatic triglyceride lipase activity [6]: not affected
lipoprotein lipase (LPL) activity in muscle [6]: significantly increased

CC1=NS(=O)(=O)c2cc(Cl)ccc2[N-]1.[K+] [Diazoxide potassium Form F]
Thermal [3]: Stable (7 days)
XRPD [7]: Crystalline
TGA [7]: 13.1%**

CC1=NS(=O)(=O)c2cc(Cl)ccc2[N-]1.[K+] [Diazoxide potassium Form C]
Moisture Sorption [2]: Hygroscopic -
Moisture Sorption: deliquesced at [2]: deliquesced at 90% RH
Thermal [3]: Stable (7 days)
XRPD [7]: Crystalline
TGA [7]: 8.4%**

CC(C)NC1=NS(=O)(=O)c2cc(Cl)c(F)cc2N1
AUC0-6 [1]: 313 ± 15 ng·h/mL
Cmax [1]: 0.08 ± 0.012 µg/mL
Relative oral bioavail. [1]: 0.2%

CC1=Nc2ccc(Cl)cc2S(=O)(=O)[N-]1.C[N+](C)(C)CCO [diazoxide choline salt Form B]
Moisture Sorption (hygroscopicity) ([2]; 25° C., listed as Form B): hygroscopic; also recorded: Hygroscopic -
water absorbed ([2]; 60% RH, 25° C., listed as Form B): 7.4 wt %
moisture absorbed ([2]; 70% relative humidity, 25° C.): over 14.5%
crystalline form after moisture sorption/desorption (XRPD) ([2]; listed as Form B): remained in the Form B crystal structure
form conversion and degradation under thermal stress (XRPD, DSC) [3]: Stable after 14 days at
inter-conversion of the solid form in slurry ([4]; 7 and 14 days, n-heptane, dichloromethane, toluene (Table 16 Form B: CH2Cl2, THF, t-AmOH), listed as Form B): form conversion was not observed; also recorded: Stable after 14 days in

CC1=NS(=O)(=O)c2cc(Cl)ccc2N1 [Diazoxide Potassium Salt]
Soluble ([8]; Acetone, 0.40 mg/mL, 55 ° C.): Yes
Conc. ([8]; CH2Cl2, 55 ° C.): 260 µg/mL
Soluble ([8]; CH2Cl2, […], 55 ° C.): No
Soluble ([8]; DMF, >6.40 mg/mL, rt): Yes
Conc. ([8]; DMF, rt): >6400 µg/mL
Conc. ([8]; Dioxane, 55 ° C.): 280 µg/mL
Soluble ([8]; Dioxane, […], 55 ° C.): No
Conc. ([8]; EtOAc, 55 ° C.): 360 µg/mL
Soluble ([8]; EtOAc, […], 55 ° C.): No
Conc. ([8]; EtOH, 55 ° C.): 2930 µg/mL
Soluble ([8]; EtOH, […], 55 ° C.): Yes
Soluble ([8]; Heptane, 0.24 mg/mL, 55 ° C.): No
Conc. ([8]; Heptane, 55 ° C.): 240 µg/mL
Conc. ([8]; IPA, 55 ° C.): 2100 µg/mL
Soluble ([8]; IPA, […], 55 ° C.): Yes
Conc. ([8]; IPAc, 55 ° C.): 340 µg/mL
Soluble ([8]; IPAc, […], 55 ° C.): No
Soluble ([8]; MEK, 0.30 mg/mL, 55 ° C.): Partially
Conc. ([8]; MEK, 55 ° C.): 300 µg/mL
Conc. ([8]; MTBE, 55 ° C.): 360 µg/mL
Soluble ([8]; MTBE, […], 55 ° C.): No
Soluble ([8]; MeCN, 0.85 mg/mL, 55 ° C.): Yes
Conc. ([8]; MeCN, 55 ° C.): 850 µg/mL
Soluble ([8]; MeOH, 6.00 mg/mL, 55 ° C.): Yes
Conc. ([8]; MeOH, 55 ° C.): 6000 µg/mL
Conc. ([8]; THF, 55 ° C.): 360 µg/mL
Soluble ([8]; THF, […], 55 ° C.): Partially
Conc. ([8]; Toluene, 55 ° C.): 280 µg/mL
Soluble ([8]; Toluene, […], 55 ° C.): No
Soluble ([8]; Water, 0.30 mg/mL, 55 ° C.): No
Soluble ([8]; c-Hexane, 0.30 mg/mL, 55 ° C.): No
Conc. ([8]; c-Hexane, 55 ° C.): 300 µg/mL
solubility ([8]; water, 55 °C): 300 µg/mL

COc1ccc2c(c1)NC(NC(C)C)=NS2(=O)=O
AUC0-6 [1]: 3590 ng·h/mL
Cmax [1]: 1.56 µg/mL
Relative oral bioavail. [1]: 2.6%

CC1=NS(=O)(=O)c2cc(Cl)ccc2[N-]1.[Na+] [sodium salt of diazoxide]
Moisture Sorption (hygroscopicity) ([2]; 25° C.): hygroscopic
hydrate formation (hysteresis upon desorption) ([2]; 25° C.): possible hydrate formation
Moisture Sorption (hygroscopicity) ([2]; 25° C., listed as Sodium diazoxide salt): deliquescent -
water absorbed ([2]; 60% RH, 25° C.): 1.2 wt %
water absorbed ([2]; 80% RH, 25° C.): 6.6 wt %
form conversion and degradation under thermal stress (XRPD, DSC) [3, 10]: little propensity to change form or degrade
inter-conversion of the solid form in slurry ([4]; 7 and 14 days, n-heptane, dichloromethane, toluene (Table 16 Form B: CH2Cl2, THF, t-AmOH)): no propensity of inter-conversion

O=S1(=O)N=C(NC2CCC2)Nc2ccc(Br)cc21
AUC0-6 [1]: 800 ± 126 ng·h/mL
Cmax [1]: 0.181 ± 0.016 µg/mL
Relative oral bioavail. [1]: 0.6%

C1COCCO1.CC1=NS(=O)(=O)c2cc(Cl)ccc2[N-]1.CC1=NS(=O)(=O)c2cc(Cl)ccc2[N-]1.[K+].[K+] [diazoxide potassium salt Form F]
crystalline form after moisture sorption/desorption (XRPD) [2]: consistent with Form D
Moisture Sorption (hygroscopicity) ([2]; 25° C.): hygroscopic
water absorbed ([2]; 90% RH, 25° C.): ~22 wt %
inter-conversion of the solid form in slurry [4, 11]: readily converted to Form D; also recorded: conversion to Form D was observed in all solvents

CC(C)=O.CC1=NS(=O)(=O)c2cc(Cl)ccc2[N-]1.CC1=NS(=O)(=O)c2cc(Cl)ccc2[N-]1.[K+].[K+] [diazoxide potassium salt Form C]
crystalline form after moisture sorption/desorption (XRPD) [2]: consistent with Form D
Moisture Sorption (hygroscopicity) ([2]; 25° C.): hygroscopic
water absorbed ([2]; 90% RH, 25° C.): approximately 47 wt %
form conversion and degradation under thermal stress (XRPD, DSC) [3, 10]: stable
inter-conversion of the solid form in slurry [4, 11]: readily converted to Form D; also recorded: conversion to Form D was observed in all solvents

CC1=NS(=O)(=O)c2cc(Cl)ccc2[N-]1.[K+] [Diazoxide potassium Form D]
Moisture Sorption [2]: Hygroscopic -
Moisture Sorption: deliquesced at [2]: deliquesced at 90% RH
Thermal [3]: Stable (7 days)
XRPD [7]: Crystalline
TGA [7]: 4.5%**

Cl.N#CN=C(Nc1ccc(N)nc1)N[C@@H]1C[C@@H]2CC[C@H]1C2 [AL0671, (+)—N-(6-amino-3-pyridil)-N′-[(1S,2R,4R)-bicyclo-[2.2.1]hept-2-yl]-N″-cyanoguanidine hydrochloride]
serum total triglyceride, chylomicron and very-low-density lipoprotein levels ([9]; 1 or 2 weeks): significantly decrease
increase of hepatic triglyceride lipase activities ([9]; postheparin plasma): 3 fold
increase of lipoprotein lipase activities ([9]; postheparin plasma): 4 fold

CC1=NS(=O)(=O)c2cc(Cl)ccc2[N-]1.CC1=NS(=O)(=O)c2cc(Cl)ccc2[N-]1.O.[K+].[K+] [diazoxide potassium salt Form D]
crystalline form after moisture sorption/desorption (XRPD) [2]: consistent with Form D
Moisture Sorption (hygroscopicity) ([2]; 25° C.): hygroscopic
inter-conversion of the solid form in slurry [4, 11]: conversion to Form D was observed in all solvents
